System: K12877-001-R-J1-PDC complex spheroid viability
Assay: Anticancer human tumor K12877-001-R-J1-PDC patient-derived lung adenocarcinoma cell line growth inhibition [RAS]
Details: for IC50: curve of first compound; for viability, T/C: stronger effect = lower value
Excerpt: RAS pathway inhibitors in Combinations in Complex Spheroids
A high-throughput screen of multi-cell type tumor spheroids was designed to identify active combinations of RAS pathway inhibitors and targeted small molecules. Complex spheroids include a stromal component modeled by human endothelial cells (HUVEC) and fibroblasts modeled by human mesenchymal stem cells (MSCs). The concentration ranges selected for each drug and investigational agent were based upon clinically achievable concentrations if the clinical Cmax of the agent was known.
Compounds. The drugs and investigational agents: abemaciclib (NSC768073), cobimetinib (NSC768068), divarasib (GDC6063, NSC841802), docetaxel (NSC628503), GDC-1971 (RLY-1971, NSC841576), gemcitabine (NSC613327), inavolisib (NSC800729), ipatasertib (NSC767898), KB-0742 (NSC834161), MRTX-1133 (NSC836407), osimertinib (NSC779217), RMC-4630 (NSC839698), RMC-6236 (NSC851965), RMC-6291 (NSC852671), Ro-3306 (NSC812927), sapanisertib (NSC764658), SN-38 (NSC673596), staurosporine (NSC755774), SY5609 (NSC837396), and tovorafenib (DAY101, NSC766906), were obtained from the National Cancer Institute (NCI) Developmental Therapeutics Program Chemical Repository. The FDA-approved anticancer drug set is available from the NCI Developmental Therapeutics Program. […] The stock solutions were prepared in dimethyl sulfoxide (DMSO, Sigma-Aldrich, St. Louis, MO, cat. D2650) at 800-fold the tested concentration and stored at -70 degrees C prior to their use. All drugs and investigational agents were tested over a range starting from a high concentration at or near the clinical Cmax and decreasing in half-log increments. If the clinical Cmax for an agent had not been determined, the highest concentration tested was 10 microM.
Cell Culture. All cells were maintained in an incubator at 37 degrees C and 5% CO2 with 95% humidity. The PDC lines were cultured according to standard operating procedures established by the NCI PDMR. All PDCs were thawed and cultured in Matrigel-coated flasks prepared with a working solution of 1X Ham's F-12 nutrient mix, without supplementation (Invitrogen, Waltham, MA, cat. 11765054), 100 U/mL penicillin-streptomycin (Invitrogen, cat. 15140122), and 2.5% Matrigel (Corning Inc., Corning, NY, cat. 354248) for the first three passages. The 362531-283-R-J2-PDC and 782815-120-R-J1-PDC lines were cultured in 6C/Colon 1B media, which includes advanced DMEM/F-12 (Thermo Fisher Scientific, cat. 12634028), 10 mM HEPES (Thermo Fisher Scientific, cat. 15630080), 1X GlutaMAX supplement (Thermo Fisher Scientific, cat. 35050061), 0.1 mg/mL primocin (InvivoGen, San Diego, CA, cat. ant-pm-2), 10% defined fetal bovine serum, heat inactivated (HyClone Laboratories Inc., Logan, UT, cat. SH30070.03HI), 50% L-WRN conditioned media (ATCC, cat. CRL-3276), 1.25 mM N-Acetyl-L-cysteine (Sigma-Aldrich, cat. A9165), 10 mM nicotinamide (Sigma-Aldrich, cat. N0636), 1X B-27 supplement (Thermo Fisher Scientific, cat. 17504044), 1X N-2 supplement (Thermo Fisher Scientific, cat. 17502048), 50 ng/mL human EGF (Thermo Fisher Scientific, cat. PHG0311), and 10 microM Y-27632 dihydrochloride (Tocris Bioscience, cat. 1254). The K12877-001-R-J1-PDC line was cultured in 6I media, which includes all 6C/Colon 1B media plus 10 ng/mL human FGF-10 (PeproTech, cat. 100-26), 1 ng/mL human FGF-2 (PeproTech, cat. 100-18B), 1 µM prostaglandin E2 (Tocris Bioscience, cat. 2296), […] hydrocortisone (Sigma-Aldrich, cat. H4001), and […] bovine insulin (Sigma-Aldrich, cat. I6634). The K86415-001-R-J1-PDC line was cultured in 6D media, which includes all 6C/Colon 1B media components minus the L-WRN conditioned media. The 485176-168-R4-J1-PDC was cultured in PANC media, which includes all 6C/Colon 1B media plus 100 ng/mL human FGF-10 (PeproTech, cat. 100-26), 500 nM SB-431542 (Selleckchem, cat. S1067), and 10 nM gastrin (Tocris Bioscience, cat. 3006). […]

[1] = second compound 0.0316 µM, first compound 0.0316 µM
[2] = second compound 0.0316 µM, first compound 0.1 µM
[3] = second compound 0.0316 µM, first compound 0.316 µM
[4] = second compound 0.0316 µM, first compound 1 µM
[5] = second compound 0.0316 µM, first compound 3.16 µM
[6] = second compound 0.0316 µM, first compound 10 µM
[7] = second compound 0.1 µM, first compound 0.0316 µM
[8] = second compound 0.1 µM, first compound 0.1 µM
[9] = second compound 0.1 µM, first compound 0.316 µM
[10] = second compound 0.1 µM, first compound 1 µM
[11] = second compound 0.1 µM, first compound 3.16 µM
[12] = second compound 0.1 µM, first compound 10 µM
[13] = second compound 0.316 µM, first compound 0.0316 µM
[14] = second compound 0.316 µM, first compound 0.1 µM
[15] = second compound 0.316 µM, first compound 0.316 µM
[16] = second compound 0.316 µM, first compound 1 µM
[17] = second compound 0.316 µM, first compound 3.16 µM
[18] = second compound 0.316 µM, first compound 10 µM
[19] = second compound 1 µM, first compound 0.0316 µM
[20] = second compound 1 µM, first compound 0.1 µM
[21] = second compound 1 µM, first compound 0.316 µM
[22] = second compound 1 µM, first compound 1 µM
[23] = second compound 1 µM, first compound 3.16 µM
[24] = second compound 1 µM, first compound 10 µM
[25] = second compound 3.16 µM, first compound 0.0316 µM
[26] = second compound 3.16 µM, first compound 0.1 µM
[27] = second compound 3.16 µM, first compound 0.316 µM
[28] = second compound 3.16 µM, first compound 1 µM
[29] = second compound 3.16 µM, first compound 3.16 µM
[30] = second compound 3.16 µM, first compound 10 µM
[31] = second compound 10 µM, first compound 0.0316 µM
[32] = second compound 10 µM, first compound 0.1 µM
[33] = second compound 10 µM, first compound 0.316 µM
[34] = second compound 10 µM, first compound 1 µM
[35] = second compound 10 µM, first compound 3.16 µM
[36] = second compound 10 µM, first compound 10 µM
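Note: spheroids exposed to agents for one week before readout.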

Structure (SMILES): CC(C)NCC(C(=O)N1CCN(c2ncnc3c2C(C)CC3O)CC1)c1ccc(Cl)cc1 (stereo unspecified) + C#Cc1c(F)ccc2cc(O)cc(-c3ncc4c(N5CC6CCC(C5)N6)nc(OCC56CCCN5CC(F)C6)nc4c3F)c12
- IC50 (second compound 0.0316 µM): 6.15 µM
- IC50 (second compound 0.1 µM): 5.29 µM
- IC50 (second compound 0.316 µM): 7.95 µM
- IC50 (second compound 1 µM): 5.79 µM
- IC50 (second compound 3.16 µM): 6.06 µM
- IC50 (second compound 10 µM): 3.01 µM
- viability, T/C [1]: 101%
- viability, T/C [2]: 95.4%
- viability, T/C [3]: 100%
- viability, T/C [4]: 86.5%
- viability, T/C [5]: 58.4%
- viability, T/C [6]: 44%
- viability, T/C [7]: 90%
- viability, T/C [8]: 103%
- viability, T/C [9]: 87.7%
- viability, T/C [10]: 96.6%
- viability, T/C [11]: 58.8%
- viability, T/C [12]: 39%
- viability, T/C [13]: 105%
- viability, T/C [14]: 103%
- viability, T/C [15]: 78.9%
- viability, T/C [16]: 92.4%
- viability, T/C [17]: 62%
- viability, T/C [18]: 45.5%
- viability, T/C [19]: 104%
- viability, T/C [20]: 103%
- viability, T/C [21]: 87.6%
- viability, T/C [22]: 95.3%
- viability, T/C [23]: 55.4%
- viability, T/C [24]: 45.1%
- viability, T/C [25]: 105%
- viability, T/C [26]: 102%
- viability, T/C [27]: 99.4%
- viability, T/C [28]: 91.1%
- viability, T/C [29]: 63.6%
- viability, T/C [30]: 39.4%
- viability, T/C [31]: 98%
- viability, T/C [32]: 93.3%
- viability, T/C [33]: 89%
- viability, T/C [34]: 94.1%
- viability, T/C [35]: 48%
- viability, T/C [36]: 32.8%

Structure (SMILES): CC(C)n1nc(-c2ccc3oc(N)nc3c2)c2c(N)ncnc21 + C#Cc1c(F)ccc2cc(O)cc(-c3ncc4c(N5CC6CCC(C5)N6)nc(OCC56CCCN5CC(F)C6)nc4c3F)c12
- IC50 (second compound 0.0316 µM): 0.0253 µM
- IC50 (second compound 0.1 µM): 0.0265 µM
- IC50 (second compound 0.316 µM): 0.027 µM
- IC50 (second compound 1 µM): 0.028 µM
- IC50 (second compound 3.16 µM): 0.0255 µM
- IC50 (second compound 10 µM): 0.0256 µM
- viability, T/C (second compound 0.0316 µM, first compound 0.000316 µM): 105%
- viability, T/C (second compound 0.0316 µM, first compound 0.001 µM): 88.2%
- viability, T/C (second compound 0.0316 µM, first compound 0.00316 µM): 83%
- viability, T/C (second compound 0.0316 µM, first compound 0.01 µM): 93.9%
- viability, T/C [1]: 39.8%
- viability, T/C [2]: 24.5%
- viability, T/C (second compound 0.1 µM, first compound 0.000316 µM): 99.2%
- viability, T/C (second compound 0.1 µM, first compound 0.001 µM): 86.2%
- viability, T/C (second compound 0.1 µM, first compound 0.00316 µM): 82.4%
- viability, T/C (second compound 0.1 µM, first compound 0.01 µM): 94.2%
- viability, T/C [7]: 42.7%
- viability, T/C [8]: 24%
- viability, T/C (second compound 0.316 µM, first compound 0.000316 µM): 97%
- viability, T/C (second compound 0.316 µM, first compound 0.001 µM): 102%
- viability, T/C (second compound 0.316 µM, first compound 0.00316 µM): 88.1%
- viability, T/C (second compound 0.316 µM, first compound 0.01 µM): 98.8%
- viability, T/C [13]: 42.5%
- viability, T/C [14]: 23.2%
- viability, T/C (second compound 1 µM, first compound 0.000316 µM): 101%
- viability, T/C (second compound 1 µM, first compound 0.001 µM): 104%
- viability, T/C (second compound 1 µM, first compound 0.00316 µM): 91.7%
- viability, T/C (second compound 1 µM, first compound 0.01 µM): 101%
- viability, T/C [19]: 44.1%
- viability, T/C [20]: 24%
- viability, T/C (second compound 3.16 µM, first compound 0.000316 µM): 114%
- viability, T/C (second compound 3.16 µM, first compound 0.001 µM): 93.3%
- viability, T/C (second compound 3.16 µM, first compound 0.00316 µM): 91.7%
- viability, T/C (second compound 3.16 µM, first compound 0.01 µM): 88.1%
- viability, T/C [25]: 40.9%
- viability, T/C [26]: 24.1%
- viability, T/C (second compound 10 µM, first compound 0.000316 µM): 101%
- viability, T/C (second compound 10 µM, first compound 0.001 µM): 84.5%
- viability, T/C (second compound 10 µM, first compound 0.00316 µM): 82.7%
- viability, T/C (second compound 10 µM, first compound 0.01 µM): 79.5%
- viability, T/C [31]: 42.6%
- viability, T/C [32]: 19.5%

Structure (SMILES): C[C@@H](NC(=O)c1ncnc(N)c1Cl)c1ncc(C(=O)Nc2cc(C(F)(F)F)c(Cl)cn2)s1 + C#Cc1c(F)ccc2cc(O)cc(-c3ncc4c(N5CC6CCC(C5)N6)nc(OCC56CCCN5CC(F)C6)nc4c3F)c12
- IC50 (second compound 0.0316 µM): > 10 µM
- IC50 (second compound 0.1 µM): > 10 µM
- IC50 (second compound 0.316 µM): > 10 µM
- IC50 (second compound 1 µM): > 10 µM
- IC50 (second compound 3.16 µM): > 10 µM
- IC50 (second compound 10 µM): > 10 µM
- viability, T/C [1]: 108%
- viability, T/C [2]: 101%
- viability, T/C [3]: 113%
- viability, T/C [4]: 107%
- viability, T/C [5]: 99%
- viability, T/C [6]: 102%
- viability, T/C [7]: 94.4%
- viability, T/C [8]: 96.2%
- viability, T/C [9]: 93.5%
- viability, T/C [10]: 103%
- viability, T/C [11]: 92.5%
- viability, T/C [12]: 97.9%
- viability, T/C [13]: 96.9%
- viability, T/C [14]: 105%
- viability, T/C [15]: 97.4%
- viability, T/C [16]: 101%
- viability, T/C [17]: 108%
- viability, T/C [18]: 98.6%
- viability, T/C [19]: 87.7%
- viability, T/C [20]: 105%
- viability, T/C [21]: 102%
- viability, T/C [22]: 108%
- viability, T/C [23]: 106%
- viability, T/C [24]: 98.9%
- viability, T/C [25]: 107%
- viability, T/C [26]: 104%
- viability, T/C [27]: 104%
- viability, T/C [28]: 106%
- viability, T/C [29]: 111%
- viability, T/C [30]: 98.3%
- viability, T/C [31]: 106%
- viability, T/C [32]: 91.7%
- viability, T/C [33]: 107%
- viability, T/C [34]: 98%
- viability, T/C [35]: 107%
- viability, T/C [36]: 96.7%
